Patent US20050120493A1, “Process for exchanging the anions of cationic compounds” (priority 2002, published 2005)

Assay: solubility in water of the dye salts before and after anion exchange
Format: physicochemical
Settings: salt form of the cationic dye as given per example

Row | water solubility | Compound
1 | 3.7% | Cn1cc[n+](C)c1N=Nc1ccc(N)cc1.[Cl-]
2 | 0.35% | COc1ccc(Nc2ccc(/N=N/c3n(C)cc[n+]3C)cc2)cc1.[Cl-]
3 | less than 0.4% | CCN(CC)c1ccc2nc3ccc(=[N+](CC)CC)cc-3oc2c1
4 | < 0.03% | Cn1cc[n+](C)c1/N=N/c1ccc(NCCCCCCNc2ccc(/N=N/c3n(C)cc[n+]3C)cc2)cc1.[Cl-].[Cl-]
